Values of other authors, collected in article PMC3384292 (Journal of the American Chemical Society, 2012).

Target: thrombin (Homo sapiens, UniProt P00734)

inhibition constant to thrombin: femtomolar
Substance: hirudin
